The text below walks through data of patent publication US20100183530A1, “Cosmetic compositions comprising 4-carboxy-2-pyrrolidinone esters and triazine lipophilic UV-screening agents” (L'OREAL, priority 2008, published 2010).

This data set in a line: Solubility of lipophilic triazine screening agents in oils (prior art solvents and solvents of the invention). Conditions: weight/weight, solution left at laboratory temperature for 1 month, no crystal or oily deposit. It counts as physicochemical.
Setting [1] is: oil: Caprylic/capric acid triglycerides.
The mark [2] stands for this setting: oil: Compound (m) of the invention.
Where [3] appears, read: oil: Isopropyl N-lauroylsarcosinate.

For “2,4-bis(isobutyl 4′-aminobenzalmalonate)-6-[(3-{1,3,3,3-tetramethyl-1-[(trimethylsilyl)oxy]disiloxanyl}propyl)amino]-1,3,5-triazine [Screening agent 2]”, the “solubility of the screening agent in the oil” value (from here on “solubility”) (oil: C12-C15 alkyl benzoate) stood at 8%, the “solubility” value under setting [1] came out at 6%, the “solubility” value under setting [2] is recorded as 60% gel and the “solubility” value under setting [3] is reported as 35%.
For the compound `CC(C)(C)COC(=O)C(=Cc1ccc(Nc2nc(Nc3ccc(C=C(C(=O)OCC(C)(C)C)C(=O)OCC(C)(C)C)cc3)nc(Nc3ccc(C=C(C(=O)OCC(C)(C)C)C(=O)OCC(C)(C)C)cc3)n2)cc1)C(=O)OCC(C)(C)C` [Screening agent 1, Dineopentyl 2-[4-({4,6-bis[(4-{3-(neopentyloxy)-2-[(neopentyloxy)carbonyl]-3-oxoprop-1-enyl}phenyl)amino]-1,3,5-triazin-2-yl}amino)benzylidene]malonate], the “solubility” value is reported as 60% gel under setting [2] and 40% gel under setting [3].
Consider `CCCCOC(=O)c1ccc(Nc2nc(Nc3ccc(C=C(C(=O)OCC(C)(C)C)C(=O)OCC(C)(C)C)cc3)nc(Nc3ccc(C=C(C(=O)OCC(C)(C)C)C(=O)OCC(C)(C)C)cc3)n2)cc1` [Screening agent 3, Dineopentyl 2-[4-({4-{[4-(butoxycarbonyl)phenyl]amino}-6-[(4-{3-(neopentyloxy)-2-[(neopentyloxy)carbonyl]-3-oxoprop-1-enyl}phenyl)amino]-1,3,5-triazin-2-yl}amino)benzylidene]malonate], for which the “solubility” value runs as follows: under setting [2], 60% gel; under setting [3], 40% gel.
Take `CC(C)(C)COC(=O)C(=Cc1ccc(Nc2nc(Nc3ccc(C=C(C(=O)OCC(C)(C)C)C(=O)OCC(C)(C)C)cc3)nc(Nc3ccc(C(=O)NC(C)(C)C)cc3)n2)cc1)C(=O)OCC(C)(C)C` [Screening agent 4, Dineopentyl 2-[4-({4-({4-[(tert-butylamino)carbonyl]phenyl}amino)-6-[(4-{3-(neopentyloxy)-2-[(neopentyloxy)carbonyl]-3-oxoprop-1-enyl}phenyl)amino]-1,3,5-triazin-2-yl}amino)benzylidene]malonate]: the “solubility” value was 60% gel under setting [2] and 40% gel under setting [3].
For `CC(C)(C)CC(C)(C)NC(=O)c1ccc(Nc2nc(NCCC[Si](C)(O[Si](C)(C)C)O[Si](C)(C)C)nc(Nc3ccc(C(=O)NC(C)(C)CC(C)(C)C)cc3)n2)cc1` [Screening agent 5, N-(1,1,3,3-tetramethylbutyl)-4-({4-[(4-{[(1,1,3,3-tetramethylbutyl)amino]carbonyl}phenyl)amino]-6-[(3-{1,3,3,3-tetramethyl-1-[(trimethylsilyl)oxy]disiloxanyl}propyl)amino]-1,3,5-triazin-2-yl}amino)benzamide], in that order: 60% gel and 40% gel.
`CCCCOC(=O)c1ccc(Nc2nc(NCCC[Si](C)(O[Si](C)(C)C)O[Si](C)(C)C)nc(Nc3ccc(C(=O)OCCCC)cc3)n2)cc1` [Screening agent 8, Butyl 4-({4-{[4-(butoxycarbonyl)phenyl]amino}-6-[(3-{1,3,3,3-tetramethyl-1-[(trimethylsilyl)oxy]disiloxanyl}propyl)amino]-1,3,5-triazin-2-yl}amino)benzoate]: the “solubility” value by setting is: (oil: 2-Phenylethyl benzoate) 27%; (oil: C12-C15 alkyl benzoate) 28%; under setting [1], 31%; (oil: Compound (I) of the invention) 60% gel; (oil: Compound (ii) of the invention) 60% gel; (oil: Compound (j) of the invention) 60% gel. Besides, the “solubility” value is recorded as 60% gel under setting [2] and 40% gel under setting [3].
Take `CCCCC(CC)COc1ccc(-c2nc(-c3ccc(OC)cc3)nc(-c3ccc(OCC(CC)CCCC)cc3O)n2)c(O)c1` (centres unmarked) [Screening agent 10, 5-[(2-Ethylhexyl)oxy]-2-[4-{4-[(2-ethylhexyl)oxy]-2-hydroxyphenyl}-6-(4-methoxyphenyl)-1,3,5-triazin-2-yl]phenol]: the “solubility” value is 18% under setting [2], 20% (oil: Compound (v) of the invention) and 10% under setting [3].
